According to patent US20250205362A1, “LIPID NANOPARTICLES” (NATIONAL UNIVERSITY CORPORATION HOKKAIDO UNIVERSITY, priority 2022, published 2025):
{IBFQ} = Iowa Black FQ quencher

Experiments:
[1] = Encapsulation rate of lipid nanoparticles (Ribogreen); assay type: physicochemical
Method: The encapsulation rate of the lipid nanoparticles was calculated by measuring the amount of encapsulated nucleic acid (the amount of ssODN in the case of RNP-ssODN) using an RNA intercalator Ribogreen (manufactured by Life Technologies).

[2] = Average particle diameter, PdI and zeta potential of lipid nanoparticles (dynamic light scattering); assay type: physicochemical
Method: The mean particle diameter (number average value), ζ-mean particle diameter, and polydispersity index (PdI) of the lipid nanoparticles in PBS(−) (pH 7.4), as well as the zeta potential in 10 mM HEPES buffer (pH 7.4), were measured using an analyzing device, Zetasizer Nano ZS ZEN3600 (Malvern), which utilizes dynamic light scattering.

BALB/c mice = test: Measurement of Fluc activity in tissues after iv Fluc mRNA-loaded lipid nanoparticles; assay type: in vivo, mouse; details: Example 1, FIG. 1; Fluc mRNA-loaded LNP 50/10/40/1.5; Balb/c mice iv 0.01 mg mRNA/kg, 6 hours
Method: First, lipid nanoparticles encapsulating Fluc mRNA (Fluc mRNA-loaded lipid nanoparticles) were intravenously injected into BALB/c mice (female, 4 weeks old) at a dose of 0.01 mg mRNA/kg body weight. Six hours after intravenous injection, the mice were euthanized, and each tissue was collected, frozen in liquid nitrogen, and stored at −80° C. The tissues were homogenized in passive lysis buffer (Promega) using a bead cell disrupter (Micro Smash MS-100R, TOMY Seiko). Tissue debris was removed by centrifugation and the supernatant was collected. Fluc activity in the supernatant was measured using a luciferase assay system (E1500, Promega) according to the manufacturer's protocol. Luminescence was measured using a luminometer (Luminescencer-PSN, ATTO). The protein concentration was determined using a commercially available measurement kit (BCA Protein Assay Kit, Pierce). Fluc activity was expressed as relative light units (RLU) per mg of protein.

TTR gene = test: Measurement of TTR-KO activity (serum TTR protein, ELISA); assay type: in vivo, mouse; details: FIG. 5; TTR-RNP-ssODN-loaded LNP; mouse serum 7 days after administration
Method: Lipid nanoparticles encapsulating Cas9/sgTTR-RNP (Cas9/sgTTR-RNP-loaded lipid nanoparticles) were intravenously injected to BALB/c mice (female, 4 weeks old) at the indicated doses. One week after intravenous injection, the mice were euthanized, blood was collected, and serum was isolated by centrifugation. The TTR protein concentration in the serum was determined using a commercially available ELISA kit (Prealbumin ELISA Kit (mouse), Aviva Systems Biology) according to the manufacturer's protocol. The serum TTR protein concentration of untreated mice was taken as 100%, and the relative value (%) of the serum TTR protein concentration of mice administered with each lipid nanoparticle was taken as the knockout activity (TTR-KO activity) of the lipid nanoparticle.

factor 7 (F7) = details: knockdown of factor 7 (F7) in mouse liver; cited from earlier work
[3] = Metabolic evaluation: lipid amount in the liver (LC/MS); assay type: in vivo, mouse; details: FIG. 4; Fluc mRNA-loaded LNP iv 0.5 mg mRNA/kg, BALB/c mice; 0.5, 4, 24 hours
Method: For liquid chromatography-mass spectrometry (LC/MS) for lipid quantification, liver samples stored at −80° C. prior to analysis were used. Mice were intravenously injected with lipid nanoparticles (0.5 mg RNA/kg body weight) and then liver tissue was harvested.
The tissue was homogenized in 200 μL of water, and the resulting tissue homogenate (50 μL) was subjected to an extraction with 400 μL of acetonitrile/isopropanol (50:50 (v/v)). The extract was centrifuged (4000 rpm, 10 min), the supernatant was filtered, and the filtrate was diluted 50-fold with water/acetonitrile/isopropanol (1:8:8 (v/v)) and transferred to a vial for LC/MS analysis using an Accucore. LC/MS was performed under the following conditions. The parent lipids and their predicted metabolites were detected under optimized conditions. Each lipid molecule was monitored using the following masses: [M+H]^+->916 (CL4H6), 864 (CL4F6), 982 (CL4F10-b-7), 752 (CL4F10-e-2). […]
Specifically, lipid nanoparticles encapsulating Fluc mRNA (Fluc mRNA-loaded lipid nanoparticles) were intravenously injected into BALB/c mice (female, 4 weeks old) at a dose of 0.5 mg mRNA/kg body weight. The mice were euthanized 0.5 hours, 4 hours, or 24 hours after the intravenous injection, and the amount of lipid derived from each lipid nanoparticle in the liver was measured.

sgTTR-G211-5FAM = test: Tm value between sgRNA and ssODN by fluorescence quenching method; assay type: physicochemical; details: with sgTTR-G211-5FAM in Cas9 RNP; FIG. 21(B); n=3
Method: To measure the Tm value between sgRNA and ssODN in the RNP complex using the fluorescence quenching method, a FAM-modified sgRNA whose 5′ end was modified with the fluorescent substance FAM and a 20-base-long IBFQ-modified ssODN whose 3′ end was modified with the quenching substance IBFQ were used.
Specifically, IBFQ-modified ssODN (5 equivalents relative to RNP) was added to Cas9 RNP containing FAM-modified sgRNA (final RNP concentration: 2.5 μM) to form an RNP-ssODN complex. The resulting solution (10 μL) was incubated at 10° C., after which the temperature was increased by 1° C. at 10 second intervals. The fluorescence intensity was measured at each temperature from 11 to 70° C. using a thermal cycler (“Dice® Real Time System III”, TaKaRa Bio Inc.). The temperature at which the fluorescence intensity was maximized was taken as the measured Tm value (° C.).

[4] = Fluc mRNA-loaded LNP, cationic lipid/DSPC/cholesterol/PEG-DMG 50/10/40/1.5 mol%, Table 5
[5] = TTR-RNP-ssODN-loaded LNP (ssODN-TTR_3-40%), cationic lipid/DSPC/cholesterol/PEG-DMG 50/10/40/3.5 mol%, Table 8
[6] = Fluc mRNA-loaded LNP, comparison CL4F11-ζ-2, SM, ALC, MC3, Table 21
[7] = Fluc mRNA-loaded LNP, lipid/DSPC/cholesterol/PEG-DMG 50/10/40/1.5 (MC3: 50/10/38.5/1.5) mol%, Table 15
[8] = TTR-RNP-ssODN-loaded LNP, comparison CL4F11-ζ-2, SM, ALC, MC3, Table 20

7-(4-(dipropylamino)butyl)-7-hydroxytridecane-1,13-diylbis(3-heptyldecanoate) [CL4F10-b-7]
Encapsulation rate [1, 4]: 94.6% | Encapsulation rate [1, 5]: 86.0% | Number-average particle diameter [2, 4]: 35.3 nm | PdI [2, 4]: 0.196 | ζ-average [2, 4]: 65.3 nm | ζ-potential [2, 4]: −3.30 mV | Number-average particle diameter [2, 5]: 82.5 nm | PdI [2, 5]: 0.104 | ζ-average [2, 5]: 127.1 nm | ζ-potential [2, 5]: −0.48 mV | Fluc activity (gene transfer ability) in liver and spleen (BALB/c mice): equal to or greater than that of CL4F6 | serum TTR activity / gene knockout versus CL4F6 (TTR gene): lower serum TTR activity and higher gene knockout

CCCCC/C=C\C/C=C\CCCCCCCCC(CCCCCCCC/C=C\C/C=C\CCCCC)OC(=O)CCCN(C)C [MC3, DLin-MC3-DMA, reference compound]
Encapsulation rate [1, 6]: 87.1% | Encapsulation rate [1, 7]: 79.3% | Encapsulation rate [1, 8]: 78.7% | Number-average particle diameter [2, 6]: 71.0 nm | PdI [2, 6]: 0.190 | ζ-average [2, 6]: 112.4 nm | ζ-potential [2, 6]: −2.17 mV | Number-average particle diameter [2, 7]: 48.0 nm | PdI [2, 7]: 0.198 | ζ-average [2, 7]: 68.6 nm | ζ-potential [2, 7]: 2.19 mV | Number-average particle diameter [2, 8]: 82.7 nm | PdI [2, 8]: 0.213 | ζ-average [2, 8]: 155.9 nm | ζ-potential [2, 8]: 0.52 mV | ED50 in F7 knockdown (factor 7 (F7)): 0.005 mg siRNA/kg

CCCCC(CC)CCCCC(=O)OCCCCCCC(O)(CCCCCCOC(=O)CCCCC(CC)CCCC)CCCCN(CCC)CCC (stereo not drawn) [CL4F10-e-2, 7-(4-(dipropylamino)butyl)-7-hydroxytridecane-1,13-diylbis(6-ethyldecanoate)]
amount of lipid in the liver (metabolism) [3]: most of it was degraded within 24 hours after administration

CCCCCC/C=C\COC(=O)CCCCCCCC(CCCCCCCC(=O)OC/C=C\CCCCCC)OC(=O)CCCN(C)C [L319]
ED50 in F7 knockdown (factor 7 (F7)): 0.01 mg siRNA/kg

ssODN-40%-3IBFQ: IBFQ bound to the 3′ end of ssODN-40% (SEQ ID NO 23), 40% matched with the ssON-paired region (DNA AAAAAAAGACGTGGAAAATT; 3' {IBFQ}, sugars by position and backbone not given here)
Tm value (fluorescence quenching) (sgTTR-G211-5FAM): 32 °C

ssODN-80%-3IBFQ: IBFQ bound to the 3′ end of ssODN-80% (SEQ ID NO 22), 80% matched with the ssON-paired region (DNA AACTGTAGACGTGGCTGTTT; 3' {IBFQ}, sugars by position and backbone not given here)
Tm value (fluorescence quenching) (sgTTR-G211-5FAM): 62 °C

CCCCCCCC/C=C\CCCCCCCC(=O)OCCCCCCC(O)(CCCCCCOC(=O)CCCCCCC/C=C\CCCCCCCC)CCCCN(C(C)C)C(C)C [CL4H6, 7-(4-(diisopropylamino)butyl)-7-hydroxytridecane-1,13-diyl dioleate, reference compound]
Encapsulation rate [1, 5]: 83.5% | Number-average particle diameter [2, 5]: 80.1 nm | PdI [2, 5]: 0.254 | ζ-average [2, 5]: 136.5 nm | ζ-potential [2, 5]: 2.83 mV | amount of lipid in the liver (metabolism) [3]: almost completely disappeared from the liver 24 hours after administration

CCCCC/C=C\C/C=C\CCCCCCCCOC1(OCCCCCCCC/C=C\C/C=C\CCCCC)CCN(C)CC1 [YSK05]
ED50 in F7 knockdown (factor 7 (F7)): 0.06 mg siRNA/kg

7-(4-(dipropylamino)butyl)-7-hydroxytridecane-1,13-diylbis(3-hexylnonanoate) [CL4F9-b-6]
Encapsulation rate [1, 4]: 91.4% | Encapsulation rate [1, 5]: 84.9% | Number-average particle diameter [2, 4]: 45.1 nm | PdI [2, 4]: 0.267 | ζ-average [2, 4]: 81.5 nm | ζ-potential [2, 4]: −4.32 mV | Number-average particle diameter [2, 5]: 99.6 nm | PdI [2, 5]: 0.145 | ζ-average [2, 5]: 141.5 nm | ζ-potential [2, 5]: −0.10 mV | Fluc activity (gene transfer ability) in liver and spleen (BALB/c mice): equal to or greater than that of CL4F6 | serum TTR activity / gene knockout versus CL4F6 (TTR gene): lower serum TTR activity and higher gene knockout
